Test results taken from ChEMBL document CHEMBL1133785, “Design, synthesis, and biological evaluation of HIV/FIV protease inhibitors incorporating a conformationally constrained macrocycle with a small P3' residue” (Bioorg Med Chem Lett, 2001).
Starred links: 1 amine or outer side, 2 acyl side, 3 side chain; linkers in the order of their positions; H or OH if unused. Non-standard residues stand in square brackets, D forms with d. Residues, ends and D or L forms follow the SMILES beside them. β3hPhe(2R-OH) = O=C([C@H](O)[C@H](Cc1ccccc1)N[*:1])[*:2]

Columns and labels:
[1] = molecular target: T1, Human immunodeficiency virus type 1 protease (Human immunodeficiency virus 1, UniProt Q72874, V82F); test: Inhibitory concentration against drug-resistant HIV(V82F) mutant protease
[2] = molecular target: T2, Human immunodeficiency virus type 1 protease (Human immunodeficiency virus 1, UniProt Q72874, F53L); test: Inhibitory concentration against TL3-resistant HIV(F53L) mutant protease; details: pooled result: one value given for 5 cell lines, strains, targets or settings
[3] = system: Feline immunodeficiency virus; test: Inhibitory concentration against Feline immunodeficiency virus (FIV) protease; assay type: functional
[4] = molecular target: T3, Human immunodeficiency virus type 1 protease (Human immunodeficiency virus 1, UniProt Q72874, G48V); test: Inhibitory concentration against drug-resistant HIV(G48V) mutant protease
[5] = molecular target: Human immunodeficiency virus type 1 protease (Human immunodeficiency virus 1, UniProt Q72874, V82A); test: Inhibitory concentration against TL3-resistant HIV(V82A) mutant
[6] = molecular target: T4, Human immunodeficiency virus type 1 protease (Human immunodeficiency virus 1, UniProt Q72874); test: Inhibitory concentration against human immunodeficiency virus (HIV) protease
[7] = molecular target: T4, Human immunodeficiency virus type 1 protease; test: Inhibitory concentration against wild-type human immunodeficiency virus (HIV-WT) protease
[8] = system: Feline immunodeficiency virus; test: Inhibitory concentration against wild-type feline immunodeficiency virus (FIV-WT) protease at a concentration of 200 uM; assay type: functional
[9] = system: Feline immunodeficiency virus; test: Inhibitory concentration against wild-type feline immunodeficiency virus (FIV-WT) protease; assay type: functional
[10] = molecular target: T4, Human immunodeficiency virus type 1 protease; test: Inhibitory concentration against TL3-resistant HIV(L241) mutant
[11] = molecular target: Human immunodeficiency virus type 1 protease (Human immunodeficiency virus 1, UniProt Q72874, L63P); test: Inhibitory concentration against TL3-resistant HIV(L63P) mutant
[12] = molecular target: T4, Human immunodeficiency virus type 1 protease; test: Inhibitory concentration against TL3-resistant HIV(V771) mutant
[13] = molecular target: T3, Human immunodeficiency virus type 1 protease; test: Inhibitory concentration against drug-resistant HIV(G48V) mutant
[14] = molecular target: T2, Human immunodeficiency virus type 1 protease; test: Inhibitory concentration against TL3-resistant HIV(F53L) mutant
[15] = molecular target: T4, Human immunodeficiency virus type 1 protease; test: Inhibitory concentration against TL3-resistant HIV(M461) mutant
[16] = molecular target: T1, Human immunodeficiency virus type 1 protease; test: Inhibitory concentration against drug-resistant HIV(V82F) mutant

| Structure (SMILES) | IC50 [3] | IC50 [5] | IC50 [6] | IC50 [7] | inhibition at 200 µM [8] | IC50 [9] | other results |
| --- | --- | --- | --- | --- | --- | --- | --- |
| CC(=O)N[C@@H](Cc1c[nH]c2ccccc12)C(=O)N[C@H](C(=O)N[C@@H](Cc1ccccc1)[C@@H](O)C(=O)N[C@H]1Cc2ccc(cc2)OCCCNC(=O)[C@H](C(C)C)NC1=O)C(C)C | 49 nM | 10 nM | 10 nM |  |  |  | IC50 [1]: 30 nM; IC50 [2]: 49 nM; IC50 [4]: 71 nM |
| COC(=O)[C@H](O)[C@H](Cc1ccccc1)NC(=O)[C@@H](NC(=O)[C@H](Cc1ccc(O)cc1)NC(C)=O)C(C)C |  |  |  | 71000 nM | 32% |  |  |
| COC(=O)[C@H](O)[C@H](Cc1ccccc1)NC(=O)[C@@H](NC(=O)[C@H](Cc1ccccc1)NC(C)=O)C(C)C |  |  |  | 113000 nM | 24% |  |  |
| CC(C)[C@@H]1NC(=O)[C@@H](NC(=O)C(=O)C(Cc2ccccc2)NC(=O)OC(C)(C)C)Cc2ccc(cc2)OCCCNC1=O (stereo partly specified) |  |  |  | 13 nM |  | 4000 nM |  |
| CC(=O)N[C@@H](Cc1ccccc1)C(=O)N[C@H](C(=O)N[C@@H](Cc1ccccc1)[C@@H](O)C(=O)N[C@H]1Cc2ccc(cc2)OCCCNC(=O)[C@H](C(C)C)NC1=O)C(C)C | 35 nM | 12 nM | 7 nM |  |  |  | IC50 [1]: 32 nM; IC50 [2]: 79 nM; IC50 [4]: 94 nM |
| COC(=O)[C@H](O)[C@H](Cc1ccccc1)NC(=O)[C@@H](NC(=O)[C@H](Cc1c[nH]c2ccccc12)NC(C)=O)C(C)C |  |  |  | 14000 nM |  | 66000 nM |  |
| CC(C)[C@@H]1NC(=O)[C@@H](NC(=O)[C@@H](O)[C@H](Cc2ccccc2)NC(=O)OC(C)(C)C)Cc2ccc(cc2)OCCCNC1=O |  |  |  | 100 nM |  | 46000 nM |  |
| CC(C)[C@@H]1NC(=O)[C@@H](NC(=O)[C@H](O)[C@H](Cc2ccccc2)NC(=O)OC(C)(C)C)Cc2ccc(cc2)OCCCNC1=O |  |  |  | 630 nM | 43% |  |  |
| CC(=O)N[C@@H](Cc1ccc(O)cc1)C(=O)N[C@H](C(=O)N[C@@H](Cc1ccccc1)[C@@H](O)C(=O)N[C@H]1Cc2ccc(cc2)OCCCNC(=O)[C@H](C(C)C)NC1=O)C(C)C | 27 nM | 11 nM | 6 nM |  |  |  | IC50 [10]: 70 nM; IC50 [11]: 70 nM; IC50 [12]: 70 nM; IC50 [13]: 57 nM; IC50 [14]: 70 nM; IC50 [15]: 70 nM; IC50 [16]: 26 nM |
| CC(=O)N[C@@H](Cc1ccc(O)cc1)C(=O)N[C@H](C(=O)N[C@@H](Cc1ccccc1)[C@@H](O)C(=O)N[C@@H](Cc1ccc(O)cc1)C(=O)N[C@H](C(N)=O)C(C)C)C(C)C (Ac-YV[β3hPhe(2R-OH)]YV-NH2) |  |  |  | 212 nM |  | 560 nM |  |
